Test results reported in the supplement of paper PMC6045584.
± gives the standard deviation of the averaged measurements.

Legend:
[1] = compound: CCCS(=O)(=O)Nc1ccc(F)c(C(=O)c2c[nH]c3ncc(Cl)cc23)c1F [PLX-4720]; assay: surviving fraction relative to DMSO-only wells; higher = less growth inhibition; conditions: exposure time: 5 days
Summary of the method: (§1)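 Tumour cell lines were grown to log phase and seeded at 250–500 cells per well in 384-well plates. They were exposed continuously to inhibitors at 0.5, 1, 5, 10, 50, 100, 500 and 1000 nM for five days, beginning 24 hours after seeding. Surviving fraction is CellTiter-Glo luminescence normalised to the median of DMSO-only wells.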

[2] = compound: COc1cc([C@@H]2c3cc4c(cc3[C@@H](O[C@@H]3O[C@@H]5CO[C@@H](C)O[C@H]5[C@H](O)[C@H]3O)[C@H]3COC(=O)[C@H]23)OCO4)cc(OC)c1O [ETOPOSIDE]; assay: as above; conditions: exposure time: 5 days
Summary of the method: as §1

Row | Test System | surviving fraction ([1]; 0.5 nM) | surviving fraction ([1]; 1 nM) | surviving fraction ([1]; 5 nM) | surviving fraction ([1]; 10 nM) | surviving fraction ([1]; 50 nM) | surviving fraction ([1]; 100 nM) | surviving fraction ([1]; 500 nM) | surviving fraction ([1]; 1000 nM) | surviving fraction ([2]; 0.5 nM) | surviving fraction ([2]; 1 nM) | surviving fraction ([2]; 5 nM) | surviving fraction ([2]; 10 nM) | surviving fraction ([2]; 50 nM) | surviving fraction ([2]; 100 nM) | surviving fraction ([2]; 500 nM) | surviving fraction ([2]; 1000 nM)
1 | SG27 HEADNECK | 0.659 ± 0.094 | 0.877 ± 0.1 | 0.962 ± 0.077 | 0.965 ± 0.12 | 0.788 ± 0.12 | 0.942 ± 0.11 | 0.928 ± 0.1 | 0.955 ± 0.1 | 1.12 ± 0.081 | 1.05 ± 0.11 | 0.975 ± 0.12 | 1.05 ± 0.14 | 1.08 ± 0.15 | 1.04 ± 0.037 | 1.09 ± 0.14 | 0.985 ± 0.14
2 | SG28 HEADNECK | 0.279 ± 0.033 | 0.796 ± 0.12 | 0.718 ± 0.057 | 0.849 ± 0.082 | 0.513 ± 0.014 | 0.964 ± 0.027 | 0.818 ± 0.11 | 0.959 ± 0.036 | 1.18 ± 0.046 | 1.19 ± 0.063 | 1.13 ± 0.075 | 1.15 ± 0.044 | 1.07 ± 0.2 | 1.09 ± 0.093 | 1.05 ± 0.029 | 0.969 ± 0.11
3 | SG31 HEADNECK | 0.492 ± 0.037 | 0.775 ± 0.056 | 0.765 ± 0.053 | 0.96 ± 0.18 | 0.642 ± 0.068 | 0.843 ± 0.048 | 0.963 ± 0.025 | 1.06 ± 0.12 | 1.05 ± 0.092 | 1.06 ± 0.04 | 1.1 ± 0.11 | 1.13 ± 0.14 | 0.946 ± 0.11 | 0.969 ± 0.11 | 0.856 ± 0.087 | 0.837 ± 0.058
4 | SG32 HEADNECK | 0.341 ± 0.11 | 0.617 ± 0.029 | 0.494 ± 0.06 | 0.742 ± 0.094 | 0.366 ± 0.042 | 0.804 ± 0.079 | 0.623 ± 0.16 | 0.821 ± 0.035 | 1.23 ± 0.076 | 1.3 ± 0.13 | 1.37 ± 0.11 | 1.2 ± 0.17 | 1.1 ± 0.098 | 1 ± 0.14 | 0.726 ± 0.042 | 0.608 ± 0.11
5 | SG43 HEADNECK | 1.26 ± 0.34 | 1.19 ± 0.013 | 1.09 ± 0.053 | 1 ± 0.1 | 1.13 ± 0.13 | 1.27 ± 0.15 | 1.65 ± 0.22 | 1.7 ± 0.078 | 1.02 ± 0.13 | 1.02 ± 0.21 | 0.933 ± 0.24 | 0.832 ± 0.23 | 0.876 ± 0.031 | 0.645 ± 0.11 | 0.894 ± 0.07 | 0.644 ± 0.064
6 | SIHA CERVIX | 0.908 ± 0.016 | 0.877 ± 0.034 | 0.909 ± 0.041 | 0.995 ± 0.034 | 0.993 ± 0.022 | 1.07 ± 0.068 | 1.06 ± 0.041 | 1.09 ± 0.055 | 1.07 ± 0.041 | 1.036 ± 0.0067 | 1.08 ± 0.12 | 1.11 ± 0.069 | 1.12 ± 0.049 | 1.16 ± 0.11 | 0.863 ± 0.058 | 0.684 ± 0.018
7 | SJSA1 BONE | 0.89 ± 0.025 | 0.914 ± 0.026 | 0.904 ± 0.028 | 0.948 ± 0.025 | 1.03 ± 0.033 | 1.03 ± 0.062 | 0.998 ± 0.059 | 0.955 ± 0.074 | 1.04 ± 0.022 | 1.04 ± 0.058 | 1.06 ± 0.036 | 1.01 ± 0.024 | 1.05 ± 0.03 | 1.02 ± 0.076 | 0.71 ± 0.0095 | 0.503 ± 0.0085
8 | SKBR3 BREAST | 0.838 ± 0.027 | 0.81 ± 0.098 | 0.819 ± 0.14 | 0.813 ± 0.15 | 1.05 ± 0.12 | 1.01 ± 0.15 | 0.986 ± 0.17 | 0.892 ± 0.14 | 1.07 ± 0.027 | 1.06 ± 0.099 | 1.1 ± 0.15 | 1.03 ± 0.12 | 1.12 ± 0.11 | 1.05 ± 0.084 | 0.66 ± 0.068 | 0.478 ± 0.12
9 | SNU475 LIVER | 0.358 ± 0.028 | 0.806 ± 0.029 | 0.674 ± 0.01 | 0.808 ± 0.02 | 0.392 ± 0.029 | 0.919 ± 0.021 | 0.839 ± 0.024 | 1 ± 0.055 | 1.02 ± 0.05 | 0.999 ± 0.11 | 1 ± 0.039 | 1.03 ± 0.042 | 0.9937 ± 0.0049 | 0.957 ± 0.066 | 0.835 ± 0.042 | 0.571 ± 0.062
10 | SUM44 BREAST | 0.9 ± 0.025 | 0.868 ± 0.058 | 0.932 ± 0.011 | 0.969 ± 0.022 | 1.07 ± 0.072 | 1.02 ± 0.052 | 0.946 ± 0.045 | 0.92 ± 0.03 | 1.03 ± 0.026 | 1.05 ± 0.034 | 1.05 ± 0.046 | 1.06 ± 0.027 | 1.09 ± 0.043 | 1.11 ± 0.062 | 0.928 ± 0.082 | 0.913 ± 0.036
11 | SUM149 BREAST |  |  |  | 0.827 ± 0.063 | 0.289 ± 0.02 | 0.991 ± 0.094 | 0.821 ± 0.05 | 0.919 ± 0.011 | 1.16 ± 0.04 | 1.17 ± 0.061 | 1.21 ± 0.048 | 1.13 ± 0.077 | 0.753 ± 0.044 | 0.563 ± 0.025 | 0.156 ± 0.0049 | 0.153 ± 0.0044
12 | SUM149.B1*.S BREAST | 0.392 ± 0.028 | 0.793 ± 0.046 | 0.787 ± 0.036 | 0.8912 ± 0.0055 | 0.517 ± 0.056 | 0.968 ± 0.042 | 0.863 ± 0.038 | 1.02 ± 0.015 | 1.1 ± 0.042 | 1.1 ± 0.053 | 1.11 ± 0.017 | 1.12 ± 0.07 | 1.08 ± 0.03 | 1.043 ± 0.0053 | 0.445 ± 0.0065 | 0.343 ± 0.013
13 | SUM159 BREAST | 1.04 ± 0.28 | 1.08 ± 0.28 | 1.04 ± 0.21 | 1.08 ± 0.23 | 1.08 ± 0.25 | 1.1 ± 0.26 | 1.1 ± 0.24 | 1.11 ± 0.21 | 1.14 ± 0.18 | 1.08 ± 0.08 | 1.1 ± 0.11 | 1.07 ± 0.058 | 1.06 ± 0.055 | 0.977 ± 0.079 | 0.364 ± 0.086 | 0.187 ± 0.027
14 | SYO1 SYNOVIAL | 0.336 ± 0.15 | 0.772 ± 0.089 | 0.658 ± 0.089 | 0.809 ± 0.043 | 0.408 ± 0.14 | 0.942 ± 0.017 | 0.865 ± 0.11 | 0.988 ± 0.061 | 0.994 ± 0.042 | 0.997 ± 0.059 | 0.975 ± 0.027 | 0.933 ± 0.023 | 0.7 ± 0.044 | 0.505 ± 0.051 | 0.106 ± 0.024 | 0.0784 ± 0.014
15 | T47D BREAST | 0.81 ± 0.036 | 0.921 ± 0.0064 | 0.919 ± 0.043 | 0.953 ± 0.025 | 0.914 ± 0.015 | 1.04 ± 0.06 | 0.994 ± 0.021 | 1.01 ± 0.043 | 1.06 ± 0.042 | 1.04 ± 0.03 | 1.07 ± 0.09 | 1.02 ± 0.021 | 1.03 ± 0.047 | 0.96 ± 0.068 | 0.525 ± 0.036 | 0.46 ± 0.023
16 | U2OS BONE | 0.914 ± 0.029 | 0.9627 ± 0.0058 | 0.949 ± 0.007 | 0.978 ± 0.035 | 1.06 ± 0.054 | 1.08 ± 0.059 | 1.07 ± 0.026 | 1.1 ± 0.039 | 1.03 ± 0.034 | 1.02 ± 0.062 | 1.05 ± 0.025 | 1.047 ± 0.009 | 1.022 ± 0.0045 | 0.867 ± 0.057 | 0.56 ± 0.026 | 0.546 ± 0.021
17 | VCAP PROSTATE | 0.915 ± 0.03 | 0.942 ± 0.048 | 0.934 ± 0.031 | 0.986 ± 0.074 | 0.966 ± 0.01 | 1.11 ± 0.14 | 1.08 ± 0.061 | 1.07 ± 0.023 | 1.19 ± 0.16 | 1.07 ± 0.032 | 1.14 ± 0.11 | 1.14 ± 0.088 | 1.07 ± 0.1 | 1.05 ± 0.092 | 0.541 ± 0.063 | 0.421 ± 0.049
18 | VP229 BREAST | 0.861 ± 0.03 | 0.838 ± 0.056 | 0.861 ± 0.055 | 0.887 ± 0.019 | 1.03 ± 0.065 | 1.1 ± 0.068 | 1.248 ± 0.0097 | 1.25 ± 0.13 | 1.11 ± 0.042 | 1.09 ± 0.16 | 1.14 ± 0.24 | 1.19 ± 0.075 | 1.17 ± 0.062 | 1.13 ± 0.064 | 1.18 ± 0.14 | 1.15 ± 0.084
19 | YAMATO SYNOVIAL | 0.15 ± 0.019 | 0.825 ± 0.054 | 0.619 ± 0.023 | 0.919 ± 0.055 | 0.281 ± 0.024 | 1.28 ± 0.086 | 0.874 ± 0.083 | 1.24 ± 0.091 | 1.3 ± 0.12 | 1.32 ± 0.063 | 1.19 ± 0.051 | 1.22 ± 0.18 | 1.26 ± 0.018 | 1.11 ± 0.096 | 0.636 ± 0.014 | 0.575 ± 0.031
20 | ZR751 BREAST | 0.774 ± 0.021 | 0.834 ± 0.051 | 0.768 ± 0.062 | 0.811 ± 0.078 | 0.783 ± 0.08 | 0.826 ± 0.099 | 0.949 ± 0.086 | 0.947 ± 0.061 | 1.1 ± 0.04 | 1.1 ± 0.048 | 1.02 ± 0.067 | 1.05 ± 0.076 | 0.996 ± 0.022 | 0.968 ± 0.089 | 0.901 ± 0.078 | 0.7397 ± 0.007
